Results reported in ChEMBL document CHEMBL5653615 (J Biol Chem, 2013).

What was measured:
[1] = target: Receptor tyrosine-protein kinase erbB-2 (Homo sapiens) (UniProt P04626); assay: Inhibition of human ERBB2 at 18.6 nM by HotSpot assay relative to control
[2] = target: G protein-coupled receptor kinase 6 (Homo sapiens) (UniProt P43250); assay: Inhibition of human GRK6 at 18.6 nM by HotSpot assay relative to control
[3] = target: Mitogen-activated protein kinase kinase kinase 10 (Homo sapiens) (UniProt Q02779); assay: Inhibition of human MAP3K10 at 18.6 nM by HotSpot assay relative to control
[4] = target: T1, Serine/threonine-protein kinase Nek11 (Homo sapiens) (UniProt Q8NG66); assay: Inhibition of human NEK11 at 18.6 nM by HotSpot assay relative to control
T1 sequence (whole entry): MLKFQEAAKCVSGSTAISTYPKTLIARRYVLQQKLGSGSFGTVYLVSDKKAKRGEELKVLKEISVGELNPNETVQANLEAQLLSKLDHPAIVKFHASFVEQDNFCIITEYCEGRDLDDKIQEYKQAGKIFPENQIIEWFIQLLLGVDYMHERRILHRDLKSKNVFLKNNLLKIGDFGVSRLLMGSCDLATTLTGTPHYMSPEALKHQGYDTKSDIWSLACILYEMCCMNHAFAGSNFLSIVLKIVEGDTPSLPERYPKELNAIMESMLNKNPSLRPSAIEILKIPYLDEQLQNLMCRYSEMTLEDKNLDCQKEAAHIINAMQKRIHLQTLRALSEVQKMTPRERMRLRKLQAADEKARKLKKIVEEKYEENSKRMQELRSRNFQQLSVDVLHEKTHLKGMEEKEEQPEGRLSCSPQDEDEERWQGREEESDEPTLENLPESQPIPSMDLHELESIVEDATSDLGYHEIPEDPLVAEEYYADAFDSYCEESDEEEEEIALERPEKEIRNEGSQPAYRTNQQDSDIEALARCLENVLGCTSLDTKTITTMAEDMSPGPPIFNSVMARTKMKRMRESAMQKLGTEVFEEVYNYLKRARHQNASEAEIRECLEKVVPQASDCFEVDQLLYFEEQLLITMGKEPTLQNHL

[5] = target: Serine/threonine-protein kinase PAK 4 (Homo sapiens) (UniProt O96013); assay: Inhibition of human PAK4 at 18.6 nM by HotSpot assay relative to control
[6] = target: cAMP-dependent protein kinase (PKA) (Homo sapiens) (UniProt P22694+P17612+P22612); assay: Inhibition of human PKA at 18.6 nM by HotSpot assay relative to control; assay type: protein assay
[7] = target: Protein kinase C gamma type (Homo sapiens) (UniProt P05129); assay: Inhibition of human PKCg at 18.6 nM by HotSpot assay relative to control
[8] = target: Protein-tyrosine kinase 2-beta (Homo sapiens) (UniProt Q14289); assay: Inhibition of human PYK2 at 18.6 nM by HotSpot assay relative to control
[9] = target: T2, Serine/threonine-protein kinase ULK2 (Homo sapiens) (UniProt Q8IYT8); assay: Inhibition of human ULK2 at 18.6 nM by HotSpot assay relative to control
T2 sequence (whole entry): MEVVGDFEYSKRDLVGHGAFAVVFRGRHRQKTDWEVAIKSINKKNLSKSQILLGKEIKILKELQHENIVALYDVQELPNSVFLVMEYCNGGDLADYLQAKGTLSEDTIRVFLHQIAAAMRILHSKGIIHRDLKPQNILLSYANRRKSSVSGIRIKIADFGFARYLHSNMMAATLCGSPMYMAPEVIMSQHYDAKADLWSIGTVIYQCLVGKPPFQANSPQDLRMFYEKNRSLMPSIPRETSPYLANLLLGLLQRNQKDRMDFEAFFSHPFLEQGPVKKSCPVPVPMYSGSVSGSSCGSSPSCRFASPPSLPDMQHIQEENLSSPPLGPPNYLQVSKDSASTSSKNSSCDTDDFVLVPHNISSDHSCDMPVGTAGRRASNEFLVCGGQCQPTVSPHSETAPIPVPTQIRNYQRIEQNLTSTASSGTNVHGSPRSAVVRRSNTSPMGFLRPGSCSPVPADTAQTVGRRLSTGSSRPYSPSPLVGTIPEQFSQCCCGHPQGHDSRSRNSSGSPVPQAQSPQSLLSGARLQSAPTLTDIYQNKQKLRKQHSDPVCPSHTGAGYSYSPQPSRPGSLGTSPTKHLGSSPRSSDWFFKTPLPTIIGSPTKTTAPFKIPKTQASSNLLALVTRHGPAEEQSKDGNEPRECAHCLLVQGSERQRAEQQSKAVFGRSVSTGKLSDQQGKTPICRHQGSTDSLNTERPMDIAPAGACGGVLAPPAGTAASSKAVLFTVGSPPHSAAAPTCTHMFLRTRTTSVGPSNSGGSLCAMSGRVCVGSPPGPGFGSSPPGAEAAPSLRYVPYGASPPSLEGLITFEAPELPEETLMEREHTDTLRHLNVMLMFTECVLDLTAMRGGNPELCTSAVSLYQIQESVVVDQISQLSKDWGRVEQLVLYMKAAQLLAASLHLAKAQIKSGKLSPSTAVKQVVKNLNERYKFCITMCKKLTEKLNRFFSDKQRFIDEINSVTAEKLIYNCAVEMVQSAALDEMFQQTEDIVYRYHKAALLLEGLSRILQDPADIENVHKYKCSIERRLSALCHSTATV

[10] = target: Mitogen-activated protein kinase kinase kinase 8 (Homo sapiens) (UniProt P41279); assay: Inhibition of human COT1 at 1.82 nM by HotSpot assay relative to control
[11] = target: T3, cGMP-dependent protein kinase 1 (Homo sapiens) (UniProt Q13976); assay: Inhibition of human PKG1b at 1.82 nM by HotSpot assay relative to control
T3 sequence (whole entry): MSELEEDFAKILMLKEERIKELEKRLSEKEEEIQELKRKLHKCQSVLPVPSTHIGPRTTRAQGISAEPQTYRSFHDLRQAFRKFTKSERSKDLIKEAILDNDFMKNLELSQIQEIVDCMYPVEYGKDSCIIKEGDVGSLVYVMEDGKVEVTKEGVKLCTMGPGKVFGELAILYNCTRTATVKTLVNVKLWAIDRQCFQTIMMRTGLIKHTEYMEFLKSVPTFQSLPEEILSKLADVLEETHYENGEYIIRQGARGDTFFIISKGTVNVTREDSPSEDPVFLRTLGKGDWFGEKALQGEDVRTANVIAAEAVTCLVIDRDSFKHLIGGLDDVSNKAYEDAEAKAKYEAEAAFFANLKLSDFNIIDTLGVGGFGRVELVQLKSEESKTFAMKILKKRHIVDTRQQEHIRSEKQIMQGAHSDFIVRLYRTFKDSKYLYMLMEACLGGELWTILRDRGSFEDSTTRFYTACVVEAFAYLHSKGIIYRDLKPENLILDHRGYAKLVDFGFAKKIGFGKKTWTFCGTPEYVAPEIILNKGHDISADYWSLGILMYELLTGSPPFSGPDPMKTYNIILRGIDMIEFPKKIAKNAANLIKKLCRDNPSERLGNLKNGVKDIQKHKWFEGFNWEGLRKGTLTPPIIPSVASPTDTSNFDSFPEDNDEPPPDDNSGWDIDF

Chain of G protein-coupled receptor kinase 6 (Homo sapiens) (P43250 whole entry, looked up): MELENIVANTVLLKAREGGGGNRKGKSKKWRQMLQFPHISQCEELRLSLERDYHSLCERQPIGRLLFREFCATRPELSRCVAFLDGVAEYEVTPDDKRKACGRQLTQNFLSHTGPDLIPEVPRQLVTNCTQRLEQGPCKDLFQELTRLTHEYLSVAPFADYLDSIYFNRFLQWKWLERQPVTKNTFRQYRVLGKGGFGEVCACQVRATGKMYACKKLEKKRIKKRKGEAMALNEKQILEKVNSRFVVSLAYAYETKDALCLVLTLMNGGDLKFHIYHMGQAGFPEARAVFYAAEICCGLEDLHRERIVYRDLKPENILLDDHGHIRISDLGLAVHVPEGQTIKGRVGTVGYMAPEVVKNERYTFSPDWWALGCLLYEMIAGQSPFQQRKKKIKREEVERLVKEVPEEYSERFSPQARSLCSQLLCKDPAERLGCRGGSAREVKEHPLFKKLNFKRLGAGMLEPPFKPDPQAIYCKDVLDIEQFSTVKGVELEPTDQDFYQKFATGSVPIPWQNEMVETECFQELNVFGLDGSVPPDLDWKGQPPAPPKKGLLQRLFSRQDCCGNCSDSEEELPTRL
Chain of Protein-tyrosine kinase 2-beta (Homo sapiens) (Q14289 whole entry, looked up): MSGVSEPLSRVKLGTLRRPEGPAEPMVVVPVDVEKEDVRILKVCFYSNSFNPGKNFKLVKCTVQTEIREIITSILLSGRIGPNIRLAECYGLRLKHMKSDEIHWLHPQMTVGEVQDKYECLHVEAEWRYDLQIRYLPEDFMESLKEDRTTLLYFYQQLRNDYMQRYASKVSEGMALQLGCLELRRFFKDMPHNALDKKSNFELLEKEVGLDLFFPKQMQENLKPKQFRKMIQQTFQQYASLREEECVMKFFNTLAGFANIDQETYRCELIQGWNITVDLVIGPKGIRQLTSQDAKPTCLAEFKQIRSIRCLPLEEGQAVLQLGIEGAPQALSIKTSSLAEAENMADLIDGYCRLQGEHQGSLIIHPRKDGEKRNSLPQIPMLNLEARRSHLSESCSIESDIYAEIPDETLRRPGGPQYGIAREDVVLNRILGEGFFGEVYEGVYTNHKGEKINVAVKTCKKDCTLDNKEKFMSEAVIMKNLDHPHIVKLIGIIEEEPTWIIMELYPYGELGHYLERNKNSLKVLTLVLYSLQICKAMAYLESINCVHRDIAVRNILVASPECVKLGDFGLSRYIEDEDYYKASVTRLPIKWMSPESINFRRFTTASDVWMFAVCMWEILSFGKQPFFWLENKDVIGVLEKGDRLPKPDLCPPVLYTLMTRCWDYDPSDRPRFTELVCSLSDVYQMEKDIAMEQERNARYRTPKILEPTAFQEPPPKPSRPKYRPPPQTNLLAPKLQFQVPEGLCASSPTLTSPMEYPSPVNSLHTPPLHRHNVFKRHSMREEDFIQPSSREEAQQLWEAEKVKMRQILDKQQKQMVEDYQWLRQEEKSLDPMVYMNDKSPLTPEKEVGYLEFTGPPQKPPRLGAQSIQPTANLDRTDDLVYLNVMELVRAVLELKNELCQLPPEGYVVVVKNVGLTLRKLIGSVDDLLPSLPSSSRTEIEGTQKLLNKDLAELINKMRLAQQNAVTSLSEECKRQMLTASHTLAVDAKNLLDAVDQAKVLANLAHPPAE
Chain of Mitogen-activated protein kinase kinase kinase 8 (Homo sapiens) (P41279 whole entry): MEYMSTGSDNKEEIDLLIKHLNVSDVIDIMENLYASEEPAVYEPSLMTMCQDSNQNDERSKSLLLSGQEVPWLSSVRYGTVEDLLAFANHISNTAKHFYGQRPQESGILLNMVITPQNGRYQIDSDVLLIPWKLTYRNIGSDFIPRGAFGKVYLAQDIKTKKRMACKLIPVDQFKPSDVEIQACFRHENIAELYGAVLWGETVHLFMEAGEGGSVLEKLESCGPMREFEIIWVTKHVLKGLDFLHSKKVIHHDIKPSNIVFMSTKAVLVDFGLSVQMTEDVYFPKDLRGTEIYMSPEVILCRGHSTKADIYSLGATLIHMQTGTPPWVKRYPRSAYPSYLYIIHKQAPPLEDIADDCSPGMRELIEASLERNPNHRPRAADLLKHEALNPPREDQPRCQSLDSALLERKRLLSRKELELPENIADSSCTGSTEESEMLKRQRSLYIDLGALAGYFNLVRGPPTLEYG
Chain of Serine/threonine-protein kinase PAK 4 (Homo sapiens) (O96013 whole entry, looked up): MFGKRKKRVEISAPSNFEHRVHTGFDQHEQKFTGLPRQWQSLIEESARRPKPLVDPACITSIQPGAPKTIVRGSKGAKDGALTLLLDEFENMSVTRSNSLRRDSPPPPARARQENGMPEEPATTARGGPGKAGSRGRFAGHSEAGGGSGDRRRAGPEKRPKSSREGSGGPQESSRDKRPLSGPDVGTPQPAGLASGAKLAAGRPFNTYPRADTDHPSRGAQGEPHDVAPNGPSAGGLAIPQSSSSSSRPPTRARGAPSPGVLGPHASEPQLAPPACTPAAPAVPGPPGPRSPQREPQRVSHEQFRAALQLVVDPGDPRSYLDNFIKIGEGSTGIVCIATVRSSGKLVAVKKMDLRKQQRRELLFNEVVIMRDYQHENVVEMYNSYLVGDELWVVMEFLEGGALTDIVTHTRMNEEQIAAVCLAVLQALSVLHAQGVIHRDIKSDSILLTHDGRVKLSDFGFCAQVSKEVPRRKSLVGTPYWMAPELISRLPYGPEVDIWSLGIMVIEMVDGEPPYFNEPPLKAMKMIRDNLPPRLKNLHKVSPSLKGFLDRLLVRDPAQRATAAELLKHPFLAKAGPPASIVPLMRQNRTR
Chain of Receptor tyrosine-protein kinase erbB-2 (Homo sapiens) (P04626 whole entry): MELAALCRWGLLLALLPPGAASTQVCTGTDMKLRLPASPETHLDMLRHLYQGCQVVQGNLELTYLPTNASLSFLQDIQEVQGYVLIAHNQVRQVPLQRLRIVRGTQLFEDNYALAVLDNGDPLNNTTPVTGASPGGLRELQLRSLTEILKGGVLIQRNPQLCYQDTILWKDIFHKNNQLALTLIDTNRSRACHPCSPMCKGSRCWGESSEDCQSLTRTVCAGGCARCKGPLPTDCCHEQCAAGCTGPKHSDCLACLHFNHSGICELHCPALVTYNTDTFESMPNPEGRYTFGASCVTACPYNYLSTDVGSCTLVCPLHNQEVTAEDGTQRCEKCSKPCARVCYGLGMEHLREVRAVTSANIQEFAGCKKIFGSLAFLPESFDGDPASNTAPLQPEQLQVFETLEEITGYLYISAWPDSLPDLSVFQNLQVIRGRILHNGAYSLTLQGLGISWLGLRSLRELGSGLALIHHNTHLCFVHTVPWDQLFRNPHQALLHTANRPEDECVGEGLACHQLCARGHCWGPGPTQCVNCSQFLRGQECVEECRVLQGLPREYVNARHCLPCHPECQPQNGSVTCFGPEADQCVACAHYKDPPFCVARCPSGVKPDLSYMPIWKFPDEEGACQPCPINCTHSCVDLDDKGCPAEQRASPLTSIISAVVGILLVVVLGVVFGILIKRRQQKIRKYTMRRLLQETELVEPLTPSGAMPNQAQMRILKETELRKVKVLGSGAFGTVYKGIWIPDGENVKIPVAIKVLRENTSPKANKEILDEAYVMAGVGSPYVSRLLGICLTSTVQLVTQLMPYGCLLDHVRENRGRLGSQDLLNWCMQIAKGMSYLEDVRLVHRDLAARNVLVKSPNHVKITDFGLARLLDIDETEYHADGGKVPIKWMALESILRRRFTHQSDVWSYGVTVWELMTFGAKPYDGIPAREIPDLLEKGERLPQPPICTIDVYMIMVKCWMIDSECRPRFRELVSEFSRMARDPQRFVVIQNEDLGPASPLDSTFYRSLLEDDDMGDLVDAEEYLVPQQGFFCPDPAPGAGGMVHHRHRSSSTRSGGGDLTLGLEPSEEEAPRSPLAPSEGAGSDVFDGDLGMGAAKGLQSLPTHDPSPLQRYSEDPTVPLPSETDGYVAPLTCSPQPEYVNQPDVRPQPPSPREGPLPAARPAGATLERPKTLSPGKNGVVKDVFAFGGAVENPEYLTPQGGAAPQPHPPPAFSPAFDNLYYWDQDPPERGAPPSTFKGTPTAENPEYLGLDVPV

Compound	inhibition [1] [%]	inhibition [2] [%]	inhibition [3] [%]	inhibition [4] [%]	inhibition [5] [%]	inhibition [6] [%]	inhibition [7] [%]	inhibition [8] [%]	inhibition [9] [%]	inhibition [10] [%]	inhibition [11] [%]
C[C@]1(O)C[C@@H](c2nc(-c3ccc4ccc(-c5ccccc5)nc4c3)c3c(N)nccn32)C1	1.71	3.48	-0.06	10.2	-5.78	-8.62	-8	-4.64	2.12		
C[C@@]1(C(=O)Nc2ccc(F)nc2)CCCN1c1nc(Nc2cc(C3CC3)n[nH]2)c2cccn2n1										10.7	-2.16
